# Reference: article PMC11099041, “Tissue distribution and retention drives efficacy of rapidly clearing VHL-based PROTACs” (Communications Medicine, 2024)
# Read-outs that look alike come from different tables or passages of the source.
# Assay: Mouse pharmacokinetics in CD-1 mice (blood, kidney, liver, lung)
# Format: in vivo
# Conditions: for Tmax: mouse, dose = c0, matrix = c1 of the line
# Method: For the PK study, a total of 42 male CD-1 mice weighing ~20-35 g were acquired from Lingchang/Vital River Laboratory Animal Co., Ltd. (Shanghai/Beijing, P.R. China) and divided into 2 treatment groups. […] was dosed with one low dose (1 mg/kg) and one high dose group (20 mg/kg). For the low-dose groups, nine animals were required for organ quantification with termination at 24 hours. For the high-dose groups, 12 animals were required for organ quantification with termination at 48 hours. The animal was administered either 1 mg/kg or 20 mg/kg of formulation solution (10% HP-β-CD in acetate buffer at pH 4.0) by IV bolus through the left lateral tail vein injection. […] Blood samples were placed on wet ice, mixed, then frozen and stored in a freezer set to -60 °C or lower until analysis. After the blood samples were collected at the terminal time points, the animals were sacrificed, and the liver, lung and kidney were harvested. The tissues were rinsed in cold water and then blotted on filter papers, weighed and homogenized using pre-cooled water at the ratio of 1:4. The tissue homogenate samples were kept at -70 °C until analysis. […] Working standard solutions were spiked into 25 μL of blank matrix on the sample plate. […] The supernatant (20 μL) was transferred into the MS injection plate, then diluted with water before injection for LC-MS/MS analysis. The concentrations of […] were quantified by an LC-MS/MS method. The LC-MS/MS system was a Waters Acquity UPLC System (Milford, MA) coupled to a Sciex Triple Quad 6500 Plus mass spectrometer (AB Sciex, Foster City, CA). The aqueous mobile phase for the analysis was 0.1% formic acid and 2 mM ammonium formate in water/ACN (v:v, 95:5) (A), and the organic mobile phase was 0.1% formic acid and 2 mM ammonium formate in ACN/water (v:v, 95:5) (B). […] Column temperature was set at 50 °C. […] The flow rate was set at 0.7 mL/min. […] The lower limit of quantitation in all matrices was 5.1 ng/mL. The mean time concentration profile was generated for each group, and an overall AUC was then calculated with these sparse samples of rats and mice. […] The following parameters were estimated whenever possible: C0, Back-extrapolated concentration at time 0; Cmax, Maximum observed concentration; Tmax, Time of maximum observed concentration; AUC0-t, Area under the concentration-time curve from hour 0 to the last measurable concentration, estimated by the linear trapezoidal rule; AUC0-336, Area under the concentration-time curve from hour 0 to hour 336, estimated by the linear trapezoidal rule; DN AUC0-336, Dose normalized AUC0-336, calculated as AUC0-336/dose level; […] AUC0-∞ = AUC0-t + Ct/λz, where Ct is the last measurable concentration and λz is the elimination rate constant; t1/2, Elimination half-life, determined by ln(2)/λz; CL, Clearance, calculated as dose/AUC0-inf; Vd, Volume of distribution based on the terminal phase, calculated as: dose/(λz × AUC0-∞) Nominal doses and sampling times were used. […] Embedded zeros were excluded from kinetic analysis.
# [1] = male, CD-1, mouse, in vivo, 1 mg/kg, Kidney, 1 mg/kg IV, individual animals, read-out: Concentration (µM) from 1 mg/kg Dosing Kidney
# [2] = male, CD-1, mouse, in vivo, 1 mg/kg, Kidney, 1 mg/kg IV, mean, read-out: Concentration (µM) from 1 mg/kg Dosing Kidney
# [3] = male, CD-1, mouse, in vivo, 1 mg/kg, Liver, 1 mg/kg IV, individual animals, read-out: Concentration (µM) from 1 mg/kg Dosing Liver
# [4] = male, CD-1, mouse, in vivo, 1 mg/kg, Liver, 1 mg/kg IV, mean, read-out: Concentration (µM) from 1 mg/kg Dosing Liver
# [5] = male, CD-1, mouse, in vivo, 1 mg/kg, Lung, 1 mg/kg IV, individual animals, read-out: Concentration (µM) from 1 mg/kg Dosing Lung
# [6] = male, CD-1, mouse, in vivo, 1 mg/kg, Lung, 1 mg/kg IV, mean, read-out: Concentration (µM) from 1 mg/kg Dosing Lung
# [7] = male, CD-1, mouse, in vivo, 20 mg/kg, Blood, 20 mg/kg IV, individual animals, read-out: Concentration (µM) from 20 mg/kg Dosing Blood
# [8] = male, CD-1, mouse, in vivo, 20 mg/kg, Blood, 20 mg/kg IV, mean, read-out: Concentration (µM) from 20 mg/kg Dosing Blood
# [9] = male, CD-1, mouse, in vivo, 20 mg/kg, Kidney, 20 mg/kg IV, individual animals, read-out: Concentration (µM) from 20 mg/kg Dosing Kidney
# [10] = male, CD-1, mouse, in vivo, 20 mg/kg, Kidney, 20 mg/kg IV, mean, read-out: Concentration (µM) from 20 mg/kg Dosing Kidney
# [11] = male, CD-1, mouse, in vivo, 20 mg/kg, Liver, 20 mg/kg IV, mean, read-out: Concentration (µM) from 20 mg/kg Dosing Liver
# [12] = male, CD-1, mouse, in vivo, 20 mg/kg, Lung, 20 mg/kg IV, individual animals, read-out: Concentration (µM) from 20 mg/kg Dosing Lung
# [13] = male, CD-1, mouse, in vivo, 20 mg/kg, Lung, 20 mg/kg IV, mean, read-out: Concentration (µM) from 20 mg/kg Dosing Lung
# [14] = male, CD-1, mouse, kidney, intravenous, 20 mg/kg, Kidney, 20 mg/kg IV, individual animals, read-out: Concentration (µM) from 20 mg/kg Dosing Kidney
# [15] = male, CD-1, mouse, kidney, intravenous, 20 mg/kg, Kidney, 20 mg/kg IV, mean, read-out: Concentration (µM) from 20 mg/kg Dosing Kidney
# [16] = male, CD-1, mouse, liver, intravenous, 20 mg/kg, Liver, 20 mg/kg IV, mean, read-out: Concentration (µM) from 20 mg/kg Dosing Liver
# [17] = male, CD-1, mouse, lung, intravenous, 20 mg/kg, Lung, 20 mg/kg IV, mean, read-out: Concentration (µM) from 20 mg/kg Dosing Lung
smiles,measurement,setting,value
Cc1ncsc1-c1ccc(C(C)NC(=O)C2CC(O)CN2C(=O)C(c2cc(N3CCC(CN4CCC(OC5CC(Oc6cc(N7C8CCC7CN(c7cc(-c9ccccc9O)nnc7N)C8)ccn6)C5)CC4)CC3)no2)C(C)C)cc1 (centres unmarked) [A947],concentration at 4 h,"male, CD-1, mouse, in vivo, 1 mg/kg, Blood, 1 mg/kg IV, mean, read-out: Concentration (µM) from 1 mg/kg Dosing Blood",0.005 µM
same,concentration at 4 h,[1],0.753 µM
same,concentration at 4 h,[2],0.561 µM
same,concentration at 8 h,[1],0.282 µM
same,concentration at 8 h,[2],0.32 µM
same,concentration at 24 h,[1],0.019 µM
same,concentration at 24 h,[2],0.023 µM
same,concentration at 4 h,[3],0.071 µM
same,concentration at 4 h,[4],0.079 µM
same,concentration at 8 h,[3],0.057 µM
same,concentration at 8 h,[4],0.045 µM
same,concentration at 24 h,"male, CD-1, mouse, in vivo, 1 mg/kg, Liver, 1 mg/kg IV, individual animals, BLOQ <5.1 ng/mL, read-out: Concentration (µM) from 1 mg/kg Dosing Liver",0.006 µM
same,concentration at 24 h,[4],0.006 µM
same,concentration at 4 h,[5],0.098 µM
same,concentration at 4 h,[6],0.094 µM
same,concentration at 8 h,[5],0.048 µM
same,concentration at 8 h,[6],0.062 µM
same,concentration at 24 h,[5],0.014 µM
same,concentration at 24 h,[6],0.014 µM
same,concentration at 0.083 h,[7],13.3 µM
same,concentration at 0.083 h,[8],11.1 µM
same,concentration at 0.25 h,[7],4.28 µM
same,concentration at 0.25 h,[8],3.65 µM
same,concentration at 0.5 h,[7],2.54 µM
same,concentration at 0.5 h,[8],1.93 µM
same,concentration at 1 h,[7],0.951 µM
same,concentration at 1 h,[8],0.847 µM
same,concentration at 2 h,[7],0.294 µM
same,concentration at 2 h,[8],0.252 µM
same,concentration at 4 h,[8],0.154 µM
same,concentration at 8 h,[7],0.048 µM
same,concentration at 8 h,[8],0.047 µM
same,concentration at 4 h,[9],16.9 µM
same,concentration at 4 h,[10],14 µM
same,concentration at 8 h,[9],6.14 µM
same,concentration at 8 h,[10],8.43 µM
same,concentration at 4 h,[11],48.4 µM
same,concentration at 8 h,"male, CD-1, mouse, in vivo, 20 mg/kg, Liver, 20 mg/kg IV, individual animals, read-out: Concentration (µM) from 20 mg/kg Dosing Liver",15.1 µM
same,concentration at 8 h,[11],19.2 µM
same,concentration at 4 h,[12],5.1 µM
same,concentration at 4 h,[13],5.75 µM
same,concentration at 8 h,[12],1.59 µM
same,concentration at 8 h,[13],2.31 µM
same,concentration at 24 h,[14],0.28 µM
same,concentration at 24 h,[15],0.361 µM
same,concentration at 48 h,[14],0.11 µM
same,concentration at 48 h,[15],0.086 µM
same,Kp,"male, CD-1, mouse, kidney, intravenous, 20 mg/kg, for the 2 dose levels (1, 20 mg/kg), read-out: Tissue-to-blood AUC ratio, kidney",160 to 243
same,concentration at 24 h,"male, CD-1, mouse, liver, intravenous, 20 mg/kg, Liver, 20 mg/kg IV, individual animals, read-out: Concentration (µM) from 20 mg/kg Dosing Liver",14.3 µM
same,concentration at 24 h,[16],10.8 µM
same,concentration at 48 h,[16],1.9 µM
same,Kp,"male, CD-1, mouse, liver, intravenous, for the 2 dose levels, read-out: Tissue-to-blood AUC ratio, liver",50 to 127
same,concentration at 24 h,[17],0.602 µM
same,concentration at 48 h,[17],0.658 µM
same,Kp,"male, CD-1, mouse, lung, intravenous, for the 2 dose levels, read-out: Tissue-to-blood AUC ratio, lung",26 to 50
same,clearance,"male, CD-1, mouse, whole blood, iv, CD-1 mice IV, blood, dose = c0",15 to 20 mL/min/kg
same,Tmax,"male, blood, kidney, liver, lung (per row, column Matrix), CD-1 mice IV",0.083 h
same,Tmax,"male, kidney, liver, lung, CD-1 mice IV",4 h
same,Initial decrease of concentration in blood,"mice IV 1 and 20 mg/kg, within initial 4 hours",> 90%
